Test results taken from the OligoGym collection.
After the bases stand the sugars from the 5' end (letter, count) and the backbone: PS all phosphorothioate, else s phosphorothioate and o phosphodiester by linkage. Methylation of C is not given here. l = locked nucleic acid (LNA); d = 2'-deoxy (DNA)

Molecular target: SNHG14
Conditions: ASO
[1] = Mouse Primary Neuronal Cell, 0.005 µM

Row | Sequence | target mRNA inhibition (Human Neuronal Cell, 0.2 µM) | target mRNA inhibition (Human Neuronal Cell, 1 µM) | target mRNA inhibition (Human Neuronal Cell, 7.5 µM) | further results
1 | TATCAGTTATCCAATA (sugars l4 d10 l2, PS) | 42% | 51% | – | –
2 | TATCTATTTAATTTACAC (sugars l3 d12 l3, PS) | 8% | 0% | – | –
3 | TATCTTTCCATTTATTTCC (sugars l1 d2 l2 d12 l2, PS) | – | – | 47% | –
4 | TATCTTTCCATTTATTTCC (sugars lddddldddddddddldll, PS) | – | – | 52% | –
5 | TATCTTTCCATTTATTTCCA (sugars l1 d2 l1 d14 l2, PS) | – | – | 45% | –
6 | TATCTTTCCATTTATTTCCA (sugars l2 d16 l2, PS) | – | – | -12% | –
7 | TATCTTTCCATTTATTTCCA (sugars lddddlddddddddllddll, PS) | – | – | 50% | –
8 | TATCTTTGACATTCCAT (sugars l2 d11 l4, PS) | 48% | 52% | – | –
9 | TATGACTCCAATAATC (sugars l3 d10 l3, PS) | 30% | 44% | – | –
10 | TATGACTTATTCCATA (sugars l2 d10 l4, PS) | 18% | 14% | – | –
11 | TATTGAACCAATTCTA (sugars l3 d10 l3, PS) | 34% | 47% | – | –
12 | TATTGATTCAATTCCCT (sugars l1 d1 l3 d10 l2, PS) | – | – | 71% | –
13 | TATTGATTCAATTCCCT (sugars l2 d11 l4, PS) | 58% | 71% | – | –
14 | TATTGATTCAATTCCCT (sugars l2 d12 l3, PS) | – | – | 59% | –
15 | TATTGATTCAATTCCCT (sugars lddllddddddddldll, PS) | – | – | 64% | –
16 | TATTGATTCAATTCCCT (sugars ldlldddddddllldll, PS) | – | – | 19% | –
17 | TATTGATTCAATTCCCT (sugars lldddddddddldldll, PS) | – | – | 60% | –
18 | TCAAAGCACACCACCAC (sugars l2 d12 l3, PS) | 34% | 47% | – | –
19 | TCAAGAATTCTCTCCTT (sugars l2 d11 l4, PS) | 47% | 51% | – | –
20 | TCAGAATAATTCTCCT (sugars l3 d10 l3, PS) | 49% | 57% | – | –
21 | TCATCATATTGAACCA (sugars l3 d10 l3, PS) | 65% | 68% | – | –
22 | TCATTGAACAACTCTTC (sugars l4 d11 l2, PS) | 31% | 17% | – | –
23 | TCCATGCTACATAAAC (sugars l4 d10 l2, PS) | 52% | 56% | – | –

Row | Sequence | target mRNA inhibition (Human Neuronal Cell, 0.2 µM) | target mRNA inhibition (Human Neuronal Cell, 1 µM) | target mRNA inhibition (Human Neuronal Cell, 7.5 µM) | further results
24 | TCCATTTATTTCCATTTAT (sugars l2 d11 l2 d2 l2, PS) | – | – | 53% | –
25 | TCCATTTATTTCCATTTATT (sugars llddlddddddddldlddll, PS) | – | – | 59% | –
26 | TCCATTTATTTCCATTTATT (sugars lldldldddddddddddlll, PS) | – | – | 55% | –
27 | TCCTCTGCTTATAACTT (sugars l3 d12 l2, PS) | 53% | 62% | – | –
28 | TCCTTTAGCATTTCTAT (sugars l3 d11 l3, PS) | 45% | 60% | – | –
29 | TCTACCCTAAATTCCC (sugars l2 d11 l3, PS) | 14% | 29% | – | –
30 | TCTATATCAAGTTCCTT (sugars l2 d11 l4, PS) | 51% | 43% | – | –
31 | TCTCATGACCACCTAA (sugars l2 d10 l4, PS) | 39% | 54% | – | –
32 | TCTGTATACACCATCC (sugars l4 d10 l2, PS) | 61% | 68% | – | –
33 | TCTTACTCTGACTTTCCA (sugars l2 d14 l2, PS) | 56% | 65% | – | –
34 | TCTTTCCATTTATTTCCATT (sugars l2 d4 l1 d11 l2, PS) | – | – | 48% | –
35 | TGAAAATCTCAACTACCAT (sugars ldllddddddddlddldll, PS) | – | – | 44% | –
36 | TGAAAATCTCAACTACCAT (sugars lldlldddddddlddldll, PS) | – | – | 46% | –
37 | TGCTCACTAACTACAC (sugars l3 d10 l3, PS) | 22% | 9% | – | –
38 | TGTCATCTACAAATCA (sugars l4 d10 l2, PS) | 50% | 46% | – | –
39 | TGTCTATTCTCTTCATT (sugars l4 d11 l2, PS) | 37% | 30% | – | –
40 | TGTTTATACCCTTTCC (sugars l4 d10 l2, PS) | 58% | 56% | – | –
41 | TGTTTATACCCTTTCCAA (sugars l1 d4 l1 d9 l3, PS) | – | – | 56% | –
42 | TGTTTATACCCTTTCCAA (sugars lldlddddddddddldll, PS) | – | – | 57% | –
43 | TGTTTCCATCTACTATTA (sugars lddldddddddddlldll, PS) | – | – | 63% | –
44 | TGTTTCCATCTACTATTA (sugars ldlldlddddddddddll, PS) | – | – | 60% | –
45 | TTAAATCCAGCATTCA (sugars l3 d10 l3, PS) | 54% | 66% | – | –
46 | TTACACATGTATATCC (sugars l3 d10 l3, PS) | 41% | 36% | – | –

Row | Sequence | target mRNA inhibition (Human Neuronal Cell, 0.2 µM) | target mRNA inhibition (Human Neuronal Cell, 1 µM) | target mRNA inhibition (Human Neuronal Cell, 7.5 µM) | further results
47 | TTACACTTAATTATACTTCC (sugars l2 d4 l1 d11 l2, PS) | – | – | 41% | –
48 | TTACACTTAATTATACTTCC (sugars ldddddldddddddldldll, PS) | – | – | 61% | –
49 | TTACACTTAATTATACTTCC (sugars ldllddldddddddldddll, PS) | – | – | 64% | –
50 | TTACCTACATCTCATACT (sugars l2 d14 l2, PS) | 5% | 14% | – | target mRNA inhibition (Human Neuronal Cell, 5 µM): 17%; target mRNA inhibition [1]: 77.1%
51 | TTACCTACATCTCATACTT (sugars l3 d13 l3, PS) | -12% | -3% | – | target mRNA inhibition (Human Neuronal Cell, 5 µM): 13%; target mRNA inhibition [1]: 86.7%
52 | TTACTCTTTGATTTCAT (sugars l3 d11 l3, PS) | 34% | 34% | – | –
53 | TTATACACCATCATTAT (sugars l3 d11 l3, PS) | 47% | 52% | – | –
54 | TTATACCTTTCTTTAACC (sugars l4 d12 l2, PS) | 38% | 57% | – | –
55 | TTATACCTTTCTTTAACCCT (sugars lddddlddddddddldddll, PS) | – | – | 58% | –
56 | TTATACCTTTCTTTAACCCT (sugars ldlddlddddddddddddll, PS) | – | – | 56% | –
57 | TTATAGCCATTCTATCT (sugars l1 d1 l1 d9 l5, PS) | – | – | 55% | –
58 | TTATAGCCATTCTATCT (sugars l1 d1 l3 d10 l2, PS) | – | – | 67% | –
59 | TTATAGCCATTCTATCT (sugars l1 d10 l1 d1 l4, PS) | – | – | 53% | –
60 | TTATAGCCATTCTATCT (sugars l1 d10 l3 d1 l2, PS) | – | – | 51% | –
61 | TTATAGCCATTCTATCT (sugars l2 d9 l1 d1 l4, PS) | – | – | 49% | –
62 | TTATAGCCATTCTATCT (sugars l2 d9 l1 d2 l3, PS) | – | – | 53% | –
63 | TTATAGCCATTCTATCT (sugars l2 d13 l2, PS) | – | – | 48% | –
64 | TTATAGCCATTCTATCT (sugars l3 d9 l1 d2 l2, PS) | – | – | 52% | –
65 | TTATAGCCATTCTATCT (sugars l3 d12 l2, PS) | – | – | 59% | –
66 | TTATAGCCATTCTATCT (sugars l4 d11 l2, PS) | 63% | 69% | – | –
67 | TTATAGCCATTCTATCT (sugars ldddldddddddlldll, PS) | – | – | 24% | –
68 | TTATAGCCATTCTATCT (sugars lddldddddddldldll, PS) | – | – | 25% | –
69 | TTATAGCCATTCTATCT (sugars ldlddddddddldllll, PS) | – | – | 49% | –

Row | Sequence | target mRNA inhibition (Human Neuronal Cell, 0.2 µM) | target mRNA inhibition (Human Neuronal Cell, 1 µM) | target mRNA inhibition (Human Neuronal Cell, 7.5 µM) | further results
70 | TTATAGCCATTCTATCT (sugars ldlddddddddlldlll, PS) | – | – | 43% | –
71 | TTATAGCCATTCTATCT (sugars ldlllddddddldddll, PS) | – | – | 44% | –
72 | TTATTCTGACACACTT (sugars l3 d10 l3, PS) | 35% | 35% | – | –
73 | TTATTCTTACCGTCTTT (sugars l2 d11 l4, PS) | 61% | 65% | – | –
74 | TTATTTCCATTTATTTTCA (sugars ldldlddddddddllldll, PS) | – | – | 62% | –
75 | TTCCATGCAAACTTTA (sugars l4 d10 l2, PS) | 49% | 64% | – | –
76 | TTCCTTTAATGCTTCTA (sugars l4 d11 l2, PS) | 55% | 65% | – | –
77 | TTCTACTATACTTTCCTCT (sugars l1 d13 l1 d2 l2, PS) | – | – | 47% | –
78 | TTCTACTATACTTTCCTCT (sugars ldddddddddddldlddll, PS) | – | – | 60% | –
79 | TTCTGTATACACCATCC (sugars l1 d1 l2 d11 l2, PS) | – | – | 55% | –
80 | TTCTGTATACACCATCC (sugars l1 d2 l1 d11 l2, PS) | – | – | 56% | –
81 | TTCTGTATACACCATCC (sugars l3 d1 l1 d10 l2, PS) | – | – | 54% | –
82 | TTCTGTATACACCATCC (sugars ldldlddddddddddll, PS) | – | – | 62% | –
83 | TTGATTCAATTCCCTTA (sugars l2 d10 l1 d2 l2, PS) | – | – | 69% | –
84 | TTGATTCAATTCCCTTA (sugars l2 d11 l4, PS) | 60% | 69% | – | –
85 | TTGATTCAATTCCCTTA (sugars lddllddddddllddll, PS) | – | – | 55% | –
86 | TTGATTCAATTCCCTTA (sugars ldlldddddddldldll, PS) | – | – | 68% | –
87 | TTGATTCAATTCCCTTA (sugars lldddddddddldldll, PS) | – | – | 61% | –
88 | TTGATTCAATTCCCTTA (sugars llddldddddddlddll, PS) | – | – | 67% | –
89 | TTGATTCCACCATTAA (sugars l3 d10 l3, PS) | 49% | 28% | – | –
